Assay results from ChEMBL document CHEMBL1909046, “DrugMatrix in vitro pharmacology data”.

Tests used:
[1] = target: T1, 5-hydroxytryptamine receptor 1A (Rattus norvegicus, UniProt P19327); assay type: cell membranes, CHO-K1, Membrane; note: in other assays of this panel Not Active means under 50% inhibition at 10 µM
T1 sequence (P19327 whole entry): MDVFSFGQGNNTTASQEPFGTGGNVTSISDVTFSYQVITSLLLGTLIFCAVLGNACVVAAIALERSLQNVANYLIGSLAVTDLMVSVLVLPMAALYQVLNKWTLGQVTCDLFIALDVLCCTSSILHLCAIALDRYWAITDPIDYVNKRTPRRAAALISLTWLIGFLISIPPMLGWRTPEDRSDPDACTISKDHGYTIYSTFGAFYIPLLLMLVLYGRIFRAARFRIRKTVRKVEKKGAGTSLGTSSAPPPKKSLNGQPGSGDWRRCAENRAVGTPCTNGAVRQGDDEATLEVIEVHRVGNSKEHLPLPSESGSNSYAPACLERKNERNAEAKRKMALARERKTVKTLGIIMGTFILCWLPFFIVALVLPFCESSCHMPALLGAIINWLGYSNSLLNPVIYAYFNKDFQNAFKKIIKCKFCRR

[2] = DRUGMATRIX: Leukotriene, BLT (LTB4) radioligand binding (ligand: [3H]LTB4); assay type: cell membranes, Membrane; details: u-937; Not Active = under 50% inhibition at 10 µM
[3] = DRUGMATRIX: beta-Lactamase enzyme inhibition (substrate: Nitrocefin); design: species or system Bacillus cereus; details: Not Active = under 50% inhibition at 10 µM
[4] = DRUGMATRIX: Calcium Channel Type L, Phenylalkylamine radioligand binding (ligand: [3H] (-)-Desmethoxyverapamil (D-888)); assay type: cell membranes, Rattus norvegicus, Wistar, Brain, Membrane; details: Not Active = under 50% inhibition at 10 µM
[5] = DRUGMATRIX: Glutamate, AMPA radioligand binding (ligand: [3H] AMPA); assay type: cell membranes, Rattus norvegicus, Wistar, Cerebral cortex, Membrane; details: Not Active = under 50% inhibition at 10 µM
[6] = target: T2, B2 bradykinin receptor (Homo sapiens, UniProt P30411); assay type: cell membranes, Membrane; details: chem-1; note: in other assays of this panel Not Active means under 50% inhibition at 10 µM
T2 sequence (P30411 whole entry): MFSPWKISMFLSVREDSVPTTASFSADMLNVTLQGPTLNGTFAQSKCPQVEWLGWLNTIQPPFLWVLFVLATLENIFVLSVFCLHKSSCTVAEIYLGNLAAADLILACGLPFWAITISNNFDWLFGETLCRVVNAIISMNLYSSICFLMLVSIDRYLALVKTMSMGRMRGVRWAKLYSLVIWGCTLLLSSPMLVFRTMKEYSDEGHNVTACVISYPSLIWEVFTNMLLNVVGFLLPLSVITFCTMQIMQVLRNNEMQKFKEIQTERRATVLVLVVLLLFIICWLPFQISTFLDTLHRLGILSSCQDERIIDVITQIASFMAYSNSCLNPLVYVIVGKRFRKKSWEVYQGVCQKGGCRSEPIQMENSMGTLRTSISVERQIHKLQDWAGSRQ

[7] = DRUGMATRIX: Phosphodiesterase PDE3 enzyme inhibition (substrate: [3H]cAMP + cAMP); assay type: tissue-based, Homo sapiens; details: platelet, Not Active = under 50% inhibition at 10 µM

Molecule | IC50 ([1]; cho-k1) | IC50 [2] | Ki [2] | IC50 [3] | Ki [3] | IC50 [4] | Ki [4] | IC50 [5] | Ki [5] | IC50 [6] | IC50 [7] | Ki [7] | IC50 ([7]; read-out: IC50) [nM] | IC50 ([1]; read-out: IC50) [nM] | Ki ([1]; read-out: Ki) [nM] | Ki ([1]; cho-k1) | Ki [6] | IC50 ([4]; read-out: IC50) [nM] | Ki ([4]; read-out: Ki) [nM]
CC(C)(C)NC(=O)[C@H]1CC[C@H]2[C@@H]3CC[C@H]4NC(=O)C=C[C@]4(C)[C@H]3CC[C@]12C [FINASTERIDE] | Not Active | Not Active | Not Active | Not Active | Not Active | Not Active | Not Active | Not Active | Not Active | Not Active | Not Active | Not Active |  |  |  |  |  |  | 
CCn1cc(C(=O)O)c(=O)c2cnc(N3CCCC3)nc21 [PIROMIDIC ACID] | Not Active | Not Active | Not Active | Not Active | Not Active | Not Active | Not Active | Not Active | Not Active | Not Active | Not Active | Not Active |  |  |  |  |  |  | 
CC1(C)S[C@@H]2[C@H](NC(=O)[C@H](N)c3ccccc3)C(=O)N2[C@H]1C(=O)O [AMPICILLIN] | Not Active | Not Active | Not Active | Not Active | Not Active | Not Active | Not Active | Not Active | Not Active | Not Active | Not Active | Not Active |  |  |  |  |  |  | 
CCN(CC)CCOCCC1=CCC2CC1C2(C)C (centres undefined) [MYRTECAINE] | Not Active | Not Active | Not Active | Not Active | Not Active | Not Active | Not Active | Not Active | Not Active | Not Active | Not Active | Not Active |  |  |  |  |  |  | 
COC(=O)Nc1nc2ccc([S+]([O-])c3ccccc3)cc2[nH]1 (centres undefined) [OXFENDAZOLE] | Not Active | Not Active | Not Active | Not Active | Not Active | Not Active | Not Active | Not Active | Not Active | Not Active | Not Active | Not Active |  |  |  |  |  |  | 
CC(=O)[C@@]1(O)CC[C@H]2[C@@H]3CCC4=CC(=O)CC[C@]4(C)[C@H]3CC[C@@]21C [HYDROXYPROGESTERONE] | Not Active | Not Active | Not Active | Not Active | Not Active | Not Active | Not Active | Not Active | Not Active | Not Active | Not Active | Not Active |  |  |  |  |  |  | 
Oc1c(Cl)cc(Cl)c(Cl)c1Cc1c(O)c(Cl)cc(Cl)c1Cl [HEXACHLOROPHENE] | Not Active | Not Active | Not Active | Not Active | Not Active | Not Active | Not Active | Not Active | Not Active | Not Active |  |  | 1850 |  |  |  |  |  | 
COC1=C(OC)C(=O)C(CCCCCCCCCCO)=C(C)C1=O [IDEBENONE] | Not Active | Not Active | Not Active | Not Active | Not Active | Not Active | Not Active | Not Active | Not Active | Not Active | Not Active | Not Active |  |  |  |  |  |  | 
C[C@]12C=CC(=O)C=C1CC[C@@H]1[C@@H]2[C@@H](O)C[C@@]2(C)[C@H]1CC[C@]2(O)C(=O)CO [PREDNISOLONE] | Not Active | Not Active | Not Active | Not Active | Not Active | Not Active | Not Active | Not Active | Not Active | Not Active | Not Active | Not Active |  |  |  |  |  |  | 
O=C1O[C@H]([C@@H](O)CO)C(O)=C1O [ASCORBIC ACID] | Not Active | Not Active | Not Active | Not Active | Not Active | Not Active | Not Active | Not Active | Not Active | Not Active | Not Active | Not Active |  |  |  |  |  |  | 
COc1ccc(C2C(=O)c3ccccc3C2=O)cc1 [ANISINDIONE] | Not Active | Not Active | Not Active | Not Active | Not Active | Not Active | Not Active | Not Active | Not Active | Not Active | Not Active | Not Active |  |  |  |  |  |  | 
Brc1c(NC2=NCCN2)ccc2nccnc12 [BRIMONIDINE] |  | Not Active | Not Active | Not Active | Not Active | Not Active | Not Active | Not Active | Not Active | Not Active | Not Active | Not Active |  | 2550 | 1460 |  |  |  | 
COc1ccc(C(=O)N2CCCC2=O)cc1 | Not Active | Not Active | Not Active | Not Active | Not Active | Not Active | Not Active | Not Active | Not Active | Not Active | Not Active | Not Active |  |  |  |  |  |  | 
C[C@@H]1C[C@H]2[C@@H]3CCC4=CC(=O)C=C[C@]4(C)[C@@]3(F)[C@@H](O)C[C@]2(C)[C@@]1(O)C(=O)CO [DEXAMETHASONE] | Not Active | Not Active | Not Active | Not Active | Not Active | Not Active | Not Active | Not Active | Not Active | Not Active | Not Active | Not Active |  |  |  |  |  |  | 
O=C(c1ccccc1C(F)(F)F)N1CCC(Cc2ccccc2)CC1 | Not Active | Not Active | Not Active | Not Active | Not Active | Not Active | Not Active | Not Active | Not Active | Not Active | Not Active | Not Active |  |  |  |  |  |  | 
CCC1(C)CC(=O)NC1=O (centres undefined) [ETHOSUXIMIDE] | Not Active | Not Active | Not Active | Not Active | Not Active | Not Active | Not Active | Not Active | Not Active | Not Active | Not Active | Not Active |  |  |  |  |  |  | 
GRAMICIDIN | Not Active | Not Active | Not Active | Not Active | Not Active | Not Active | Not Active | Not Active | Not Active | Not Active | Not Active | Not Active |  |  |  | Not Active | Not Active |  | 
OC(CCCN1CCCCC1)(c1ccccc1)c1ccccc1 [DIPHENIDOL] | Not Active | Not Active | Not Active | Not Active | Not Active |  |  | Not Active | Not Active | Not Active | Not Active | Not Active |  |  |  |  |  | 4500 | 4380
CCC(=O)O[C@]1(C(=O)CCl)[C@@H](C)C[C@H]2[C@@H]3CCC4=CC(=O)C=C[C@]4(C)[C@@]3(F)[C@@H](O)C[C@@]21C [CLOBETASOL PROPIONATE] | Not Active | Not Active | Not Active | Not Active | Not Active | Not Active | Not Active | Not Active | Not Active | Not Active | Not Active | Not Active |  |  |  |  |  |  | 
Cc1c(OCC(F)(F)F)ccnc1C[S+]([O-])c1nc2ccccc2[nH]1 (centres undefined) [LANSOPRAZOLE] | Not Active | Not Active | Not Active | Not Active | Not Active | Not Active | Not Active | Not Active | Not Active | Not Active | Not Active | Not Active |  |  |  |  |  |  | 
CCCOc1ccc(C(=O)OCCN(CC)CC)cc1N [PROPARACAINE] | Not Active | Not Active | Not Active | Not Active | Not Active | Not Active | Not Active | Not Active | Not Active | Not Active | Not Active | Not Active |  |  |  |  |  |  | 
